This is an account of results in article PMC8009520, “Exploration of TRPM8 Binding Sites by β-Carboline-Based Antagonists and Their In Vitro Characterization and In Vivo Analgesic Activities” (Journal of Medicinal Chemistry, 2020).

By IC50 is commonly meant the concentration that inhibits the measured activity by half.

This assay deals with T1, rat isoform of TRPM8 channels (Rattus norvegicus, UniProt Q8R455).
T1 construct: expressed in transfected cells
Briefly: Ca2+ fluorimetric assay, menthol-activated channel. It counts as cell-based. As to the method:
TRPM8 blocker activity of all synthesized compounds was tested by Ca^2+ fluorimetric assays using HEK-293 cells stably expressing the rat isoform of TRPM8 channels, using menthol and AMTB as prototypical agonist and antagonist, respectively.
For measurement of the potency of the compounds, fluorimetric experiments were performed using HEK-293 cells (CRL-1573TM, American Type Culture Collection, LGC Promochem, Molsheim, France) that stably express rat TRPM8. The cells were seeded in 96-well plates (Corning Incorporated, Corning, NY) at a cell density of 40 000 cells 2 days before treatment. On the day of treatment, the medium was replaced with 100 μL of the dye loading solution Fluo-4 NW supplemented with probenecid 2.5 mM.
The tested molecules dissolved in DMSO were added at the desired concentrations, and the plates were incubated in darkness at 37 °C in a humidified atmosphere of 5% CO2 for 60 min. The fluorescence was measured using instrument settings appropriate for excitation at 485 nm and emission at 535 nm (POLARstar Omega BMG LABtech). A baseline recording of four cycles was recorded prior to stimulation with the agonist (100 μM menthol for TRPM8). The TRPM8 antagonist, 10 μM AMTB, was added to the medium containing the corresponding agonist to induce channel blockade. The changes in fluorescence intensity were recorded during 15 cycles more. The higher concentration of DMSO used in the experiment was added to the control wells. The cells’ fluorescence was measured before and after the addition of various concentrations of test compounds. The fluorescence values obtained are normalized to that prompted by the corresponding agonist (for channel activating compounds) or upon agonist and antagonist coexposure (for channel blocker compounds).

Setting [1] is: HEK-293 cells stably expressing rat TRPM8, menthol as agonist, mean ± SD of at least three measurements, read-out: IC50.
[2] abbreviates: supplementary xlsx, read-out: rTRPM8 IC50 (calcium microfluorimetric assays).

Like-named read-outs stand apart in the source and are kept apart here.

T1 sequence (Q8R455 whole entry, canonical isoform): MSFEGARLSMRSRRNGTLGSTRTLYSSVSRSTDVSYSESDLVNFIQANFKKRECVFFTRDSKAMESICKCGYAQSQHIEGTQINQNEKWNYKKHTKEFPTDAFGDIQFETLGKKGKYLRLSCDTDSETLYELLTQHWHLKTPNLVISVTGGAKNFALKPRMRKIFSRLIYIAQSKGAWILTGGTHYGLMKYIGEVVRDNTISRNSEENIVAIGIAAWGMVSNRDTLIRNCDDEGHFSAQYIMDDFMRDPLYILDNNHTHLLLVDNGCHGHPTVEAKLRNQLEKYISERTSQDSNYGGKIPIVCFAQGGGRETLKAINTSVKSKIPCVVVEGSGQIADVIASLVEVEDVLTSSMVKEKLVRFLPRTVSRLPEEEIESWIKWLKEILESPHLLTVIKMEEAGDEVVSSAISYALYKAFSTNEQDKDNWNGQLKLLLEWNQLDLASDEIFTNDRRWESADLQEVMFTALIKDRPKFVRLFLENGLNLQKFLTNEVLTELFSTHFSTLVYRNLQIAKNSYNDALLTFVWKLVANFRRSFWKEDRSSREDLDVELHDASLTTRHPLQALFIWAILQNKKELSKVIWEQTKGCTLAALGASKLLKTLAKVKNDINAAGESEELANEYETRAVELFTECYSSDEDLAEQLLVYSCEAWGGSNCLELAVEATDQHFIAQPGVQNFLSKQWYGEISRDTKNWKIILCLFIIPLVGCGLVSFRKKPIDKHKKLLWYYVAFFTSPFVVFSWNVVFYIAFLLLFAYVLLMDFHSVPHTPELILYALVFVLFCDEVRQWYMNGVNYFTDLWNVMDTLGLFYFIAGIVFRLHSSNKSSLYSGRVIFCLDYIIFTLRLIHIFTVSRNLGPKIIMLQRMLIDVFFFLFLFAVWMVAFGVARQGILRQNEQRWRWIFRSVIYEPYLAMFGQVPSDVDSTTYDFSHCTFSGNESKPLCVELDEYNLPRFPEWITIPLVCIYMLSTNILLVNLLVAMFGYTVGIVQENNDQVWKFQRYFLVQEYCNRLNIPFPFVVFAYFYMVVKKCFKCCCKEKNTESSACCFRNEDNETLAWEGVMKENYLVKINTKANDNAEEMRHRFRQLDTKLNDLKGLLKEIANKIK

As for `COC(=O)[C@@H]1Cc2c([nH]c3ccccc23)[C@H](c2ccccc2)N1Cc1ccccc1` [6b, (1S,3S)-Methyl 2-Benzyl-1-phenyl-2,3,4,9-tetrahydro-1H-pyrido[3,4-b]indole-3-carboxylate], the IC50 under setting [1] is 1.6 ± 0.9 µM and the IC50 under setting [2] was 1.4 ± 1.3 µM.

Consider `CC(C)C[C@H]1N[C@H](C(=O)NCc2ccc(F)cc2)Cc2c1[nH]c1ccccc21` [10a, (1R,3S)-N-(4-Fluorobenzyl)-1-isobutyl-2,3,4,9-tetrahydro-1H-pyrido[3,4-b]indole-3-carboxamide], for which the IC50 under setting [1] was 4.6 ± 1.3 µM.

With `CC(C)C[C@@H]1N[C@H](C(=O)NCc2ccc(F)cc2)Cc2c1[nH]c1ccccc21` [10b, (1S,3S)-N-(4-Fluorobenzyl)-1-isobutyl-2,3,4,9-tetrahydro-1H-pyrido[3,4-b]indole-3-carboxamide], the IC50 under setting [1] was found to be 6.2 ± 1.2 µM.

For `COC(=O)CC[C@@H]1N[C@H](C(=O)NCc2ccc(F)cc2)Cc2c1[nH]c1ccccc21` [11b, Methyl 3-((1S,3S)-3-((4-Fluorobenzyl)carbamoyl)-2,3,4,9-tetrahydro-1H-pyrido[3,4-b]indol-1-yl)propanoate], under setting [1], the concentration for half-maximal inhibition (IC50) is 3 ± 1.2 µM.

As to `O=C(O)CC[C@@H]1N[C@H](C(=O)NCc2ccc(F)cc2)Cc2c1[nH]c1ccccc21` [12b, 3-((1S,3S)-3-((4-Fluorobenzyl)carbamoyl)-2,3,4,9-tetrahydro-1H-pyrido[3,4-b]indol-1-yl)propanoic Acid], the IC50 under setting [1] worked out at 22 ± 1.4 µM.

`CC(C)C[C@@H]1c2[nH]c3ccccc3c2C[C@H]2C(=O)N[C@@H](Cc3ccccc3)C(=O)N12` [25a, (3S,6R,12aS)-3-Benzyl-6-isobutyl-2,3,12,12a-tetrahydropyrazino[1′,2′:1,6]pyrido[3,4-b]indole-1,4(6H,7H)-dione]: under setting [1], the IC50 came out at 4.1 ± 1.1 µM.

As to `CC(C)C[C@H]1c2[nH]c3ccccc3c2C[C@H]2C(=O)N[C@@H](Cc3ccccc3)C(=O)N21` [25b, (3S,6S,12aS)-3-Benzyl-6-isobutyl-2,3,12,12a-tetrahydropyrazino[1′,2′:1,6]pyrido[3,4-b]indole-1,4(6H,7H)-dione], the IC50 is 1.3 ± 0.6 µM under setting [1] and 0.9 ± 1.2 µM under setting [2].

Turning to `O=C1NCC(=O)N2[C@H](c3ccc(Cl)cc3)c3[nH]c4ccccc4c3C[C@@H]12` [27a, (6R,12aS)-6-(4-Chlorophenyl)-2,3,12,12a-tetrahydropyrazino[1′,2′:1,6]pyrido[3,4-b]indole-1,4(6H,7H)-dione], the IC50 under setting [1] is 1.5 ± 1.1 µM.

As to `O=C1NCC(=O)N2[C@@H](c3ccc(Cl)cc3)c3[nH]c4ccccc4c3C[C@@H]12` [27b, (6S,12aS)-6-(4-Chlorophenyl)-2,3,12,12a-tetrahydropyrazino[1′,2′:1,6]pyrido[3,4-b]indole-1,4(6H,7H)-dione], the IC50 runs as follows: under setting [1], 1.7 ± 0.8 µM; under setting [2], 1.2 ± 1.7 µM.

Regarding `COc1ccc(CN2C(=O)[C@@H]3Cc4c([nH]c5ccccc45)[C@@H](CC(C)C)N3C2=O)cc1` [29a, (5R,11aS)-5-Isobutyl-2-(4-methoxybenzyl)-5,6,11,11a-tetrahydro-1H-imidazo[1′,5′:1,6]pyrido[3,4-b]indole-1,3(2H)-dione], the IC50 under setting [1] was 2.8 ± 1.2 µM. The rTRPM8 IC50 (calcium microfluorimetric assays) (supplementary xlsx) is 22.9 ± 1.4 µM.

Turning to `COc1ccc(CN2C(=O)[C@H]3Cc4c([nH]c5ccccc45)[C@H](CC(C)C)N3C2=O)cc1` [29a′, (5S,11aR)-5-Isobutyl-2-(4-methoxybenzyl)-5,6,11,11a-tetrahydro-1H-imidazo[1′,5′:1,6]pyrido[3,4-b]indole-1,3(2H)-dione], the 50% inhibitory concentration (IC50) under setting [1] turned out to be 22.9 ± 1.4 µM.

With `Cc1ccc(CN2C(=O)[C@@H]3Cc4c([nH]c5ccccc45)[C@@H](c4ccc(Cl)cc4)N3C2=O)cc1` [30a, (5R,11aS)-5-(4-Chlorophenyl)-2-(4-methylbenzyl)-5,6,11,11a-tetrahydro-1H-imidazo[1′,5′:1,6]pyrido[3,4-b]indole-1,3(2H)-dione], under setting [1], the IC50 turned out to be 0.8 ± 0.4 µM. Besides, the rTRPM8 IC50 (calcium microfluorimetric assays) (supplementary xlsx) was 2.3 ± 0.8 µM.

For the compound `Cc1ccc(CN2C(=O)[C@H]3Cc4c([nH]c5ccccc45)[C@H](c4ccc(Cl)cc4)N3C2=O)cc1` [30a′, (5S,11aR)-5-(4-Chlorophenyl)-2-(4-methylbenzyl)-5,6,11,11a-tetrahydro-1H-imidazo[1′,5′:1,6]pyrido[3,4-b]indole-1,3(2H)-dione], the IC50 under setting [1] stood at 2.3 ± 0.8 µM.

Take `O=C1[C@H]2Cc3c([nH]c4ccccc34)[C@H](c3ccc(Cl)cc3)N2C(=O)N1Cc1ccc(F)cc1` [31a′, (5S,11aR)-5-(4-Chlorophenyl)-2-(4-fluorobenzyl)-5,6,11,11a-tetrahydro-1H-imidazo[1′,5′:1,6]pyrido[3,4-b]indole-1,3(2H)-dione]: the IC50 under setting [1] was more than 30 µM.

On to `O=C1[C@@H]2Cc3c([nH]c4ccccc34)[C@@H](c3ccc(F)cc3)N2C(=O)N1Cc1ccccc1` [33a, (5R,11aS)-2-Benzyl-5-(4-fluorophenyl)-5,6,11,11a-tetrahydro-1H-imidazo[1′,5′:1,6]pyrido[3,4-b]indole-1,3(2H)-dione], for which, under setting [1], the IC50 stood at 6.4 ± 1.2 µM. The rTRPM8 IC50 (calcium microfluorimetric assays) (supplementary xlsx) stood at 17.5 ± 1.4 µM.

Consider `O=C1[C@H]2Cc3c([nH]c4ccccc34)[C@H](c3ccc(F)cc3)N2C(=O)N1Cc1ccccc1` [33a′, (5S,11aR)-2-Benzyl-5-(4-fluorophenyl)-5,6,11,11a-tetrahydro-1H-imidazo[1′,5′:1,6]pyrido[3,4-b]indole-1,3(2H)-dione], for which the IC50 under setting [1] was determined as 17.5 ± 1.4 µM.

In the case of `NCCCN1C(=O)[C@@H]2Cc3c([nH]c4ccccc34)[C@@H](c3ccc(F)cc3)N2C1=O` [35a, (5R,11aS)-2-(3-Aminopropyl)-5-(4-fluorophenyl)-5,6,11,11a-tetrahydro-1H-imidazo[1′,5′:1,6]pyrido[3,4-b]indole-1,3(2H)-dione], the IC50 under setting [1] is 5.1 ± 1.2 µM. Further, the rTRPM8 IC50 (calcium microfluorimetric assays) (supplementary xlsx) was determined as 27.2 ± 1.4 µM.

On to `NCCCN1C(=O)[C@H]2Cc3c([nH]c4ccccc34)[C@H](c3ccc(F)cc3)N2C1=O` [35a′, (5S,11aR)-2-(3-Aminopropyl)-5-(4-fluorophenyl)-5,6,11,11a-tetrahydro-1H-imidazo[1′,5′:1,6]pyrido[3,4-b]indole-1,3(2H)-dione], for which the IC50 under setting [1] worked out at 27.2 ± 1.4 µM.

With `O=C1[C@@H]2Cc3c([nH]c4ccccc34)[C@@H](c3ccc(F)cc3)N2C(=O)N1c1cccc(C(F)(F)F)c1` [36a, (5R,11aS)-5-(4-Fluorophenyl)-2-(3-(trifluoromethyl)phenyl)-5,6,11,11a-tetrahydro-1H-imidazo[1′,5′:1,6]pyrido[3,4-b]indole-1,3(2H)-dione], the IC50 under setting [1] is 2.8 ± 1.5 µM. Besides, the rTRPM8 IC50 (calcium microfluorimetric assays) (supplementary xlsx) was determined as 7.8 ± 2.4 µM.

Consider `O=C1[C@H]2Cc3c([nH]c4ccccc34)[C@H](c3ccc(F)cc3)N2C(=O)N1c1cccc(C(F)(F)F)c1` [36a′, (5S,11aR)-5-(4-Fluorophenyl)-2-(3-(trifluoromethyl)phenyl)-5,6,11,11a-tetrahydro-1H-imidazo[1′,5′:1,6]pyrido[3,4-b]indole-1,3(2H)-dione], for which the IC50 under setting [1] worked out at 7.8 ± 2.4 µM.

As for `O=C1[C@@H]2Cc3c([nH]c4ccccc34)[C@@H](c3ccc(F)cc3)N2C(=O)N1c1ccccc1F` [37a, (5R,11aS)-2-(2-Fluorophenyl)-5-(4-fluorophenyl)-5,6,11,11a-tetrahydro-1H-imidazo[1′,5′:1,6]pyrido[3,4-b]indole-1,3(2H)-dione], the IC50 under setting [1] was found to be 4.4 ± 1.3 µM. Besides, for the setting “supplementary xlsx”, the rTRPM8 IC50 (calcium microfluorimetric assays) worked out at 5.1 ± 2.1 µM.

Regarding `O=C1[C@H]2Cc3c([nH]c4ccccc34)[C@H](c3ccc(F)cc3)N2C(=O)N1c1ccccc1F` [37a′, (5S,11aR)-2-(2-Fluorophenyl)-5-(4-fluorophenyl)-5,6,11,11a-tetrahydro-1H-imidazo[1′,5′:1,6]pyrido[3,4-b]indole-1,3(2H)-dione], the concentration for half-maximal inhibition (IC50) under setting [1] stood at 5.1 ± 2.1 µM.

On to `O=C1[C@@H]2Cc3c([nH]c4ccccc34)[C@@H](c3ccc(F)cc3)N2C(=O)N1c1ccc(F)cc1` [38a, (5R,11aS)-2,5-Bis(4-fluorophenyl)-5,6,11,11a-tetrahydro-1H-imidazo[1′,5′:1,6]pyrido[3,4-b]indole-1,3(2H)-dione], for which the IC50 under setting [1] was 6.7 ± 1.2 µM. The rTRPM8 IC50 (calcium microfluorimetric assays) (supplementary xlsx) is 7.2 ± 0.9 µM.

With `O=C1[C@H]2Cc3c([nH]c4ccccc34)[C@H](c3ccc(F)cc3)N2C(=O)N1c1ccc(F)cc1` [38a′, (5S,11aR)-2,5-Bis(4-fluorophenyl)-5,6,11,11a-tetrahydro-1H-imidazo[1′,5′:1,6]pyrido[3,4-b]indole-1,3(2H)-dione], the IC50 under setting [1] was 7.2 ± 0.9 µM.

For `Cc1cccc(COc2ccccc2C(=O)N(CCCN)Cc2cccs2)c1` [AMTB, reference compound], the IC50 under setting [1] stood at 7.3 ± 1.5 µM.

Take `COC(=O)[C@@H]1Cc2c([nH]c3ccccc23)CN1C(=O)CCN` [compound 17, (S)-Methyl 2-(3-Aminopropanoyl)-2,3,4,9-tetrahydro-1H-pyrido[3,4-b]indole-3-carboxylate]: the IC50 under setting [1] was more than 100 µM.

For `O=C1NCC(=O)N2Cc3[nH]c4ccccc4c3C[C@@H]12` [compound 21, (S)-2,3,6,7,12,12a-Hexahydropyrazino[1′,2′:1,6]pyrido[3,4-b]indole-1,4-dione], the IC50 under setting [1] turned out to be 11.4 ± 1.6 µM.
